Reference: patent US9217139B2, “Extracellularly secreted nuclease” (JAPAN AGENCY FOR MARINE-EARTH SCIENCE AND TECHNOLOGY, priority 2010, dated 2015)
Where “and” joins values, the source holds several entries; their conditions need not be identical. Equal values may be shown once. Read-outs that look alike come from different tables or passages of the source.

Key:
NucS = format: biochemical, Streptomyces sp. MBE174
Description: (§1) In this case, 1 U represents an amount of enzymes necessary to increase the absorbancy of 260 nm by one for 30 minutes when the enzymes works on the following as substrate: Salmon sperm DNA 1 mg/mL (manufactured by Invitrogen; Cat no. 15632-011).
(§2) NucS and NucL were kept in contact with the compounds listed in Table 3 on an ice bath for one hour, and then, the enzyme activity was measured by the standard specific activity measurement method (referring to Table 3). […] Incidentally, poorly water-soluble compounds were dissolved in dimethyl sulfoxide, and then added to an enzyme solution. The final concentration of dimethyl sulfoxide after addition was 5 percent. The activity in the presence of 5 percent of dimethyl sulfoxide was regarded as being 100 percent.

NucL = format: biochemical, Streptomyces sp. MBE174; details: for effect of the chemical substance on NucL activity (in words): summary of Table 3
Description: as §1, §2

Salmon sperm DNA = assay: standard specific activity measurement method (increase of absorbancy at 260 nm); format: biochemical; details: fraction after each purification step of NucS (Table 1)
Description: The specific activity of NucS was measured at 37 degrees Celsius in 20 mM of Tris/HCl at pH 8.5 that contains 1 mM of MgCl2 and 1 mM of CaCl2 (a measurement method under the condition described here is also referred to as a standard specific activity measurement method, hereinafter); the specific activity was 3.6×10^6 U/mg-protein, which was a very high level of specific activity. In this case, 1 U represents an amount of enzymes necessary to increase the absorbancy of 260 nm by one for 30 minutes when the enzymes works on the following as substrate: Salmon sperm DNA 1 mg/mL (manufactured by Invitrogen; Cat no. 15632-011). As a reference, as for NucS, when the specific activity of Benzonase (Registered Trademark), which was a commercially available nucleolytic enzyme that had the highest specific activity among those listed in a brochure, was measured under the conditions described in the brochure (37 degrees Celsius) with the use of the same substrate; the specific activity was 9.4×10^5 U/mg-protein. As a result, it became clear that the specific activity of NucS is about 3.8 times higher than that of Benzonase.
The specific activity of NucL was 5.6×10^4 U/mg-protein at 37 degrees Celsius in 20 mM of Tris/HCl at pH 8.5 that contains 1 mM of MgCl2 and 1 mM of CaCl2. The isoelectric point was measured by using Novex (Registered Trademark) IEF pH-3-10 gel (manufactured by Invitrogen); and then pl was 7.0. Then, it was determined that a N-terminal amino acid sequence of the purified enzyme was DSVRIHDIQGTTR. The sequence matched 12 out of 13 amino acids of putative protein (putative secreted hydrolase) coded on a genome of Streptomyces scabiei 87.22, and of putative protein (large secreted protein) coded on a genome of S. avermitilis MA-4680.

[1] = chemical at 1.0 mM, contact on ice bath one hour, additive-free = 100
[2] = chemical at 5.0 mM, contact on ice bath one hour, additive-free = 100
[3] = chemical at 1.0%, contact on ice bath one hour, additive-free = 100
[4] = chemical at 10.0%, contact on ice bath one hour, additive-free = 100
[5] = chemical at 20.0%, contact on ice bath one hour, additive-free = 100
[6] = chemical at 0.1 mM, contact on ice bath one hour, additive-free = 100
[7] = chemical at 0.1%, contact on ice bath one hour, additive-free = 100
[8] = chemical at 2.0M, contact on ice bath one hour, additive-free = 100
[9] = chemical at 4.0M, contact on ice bath one hour, additive-free = 100
[10] = chemical at 6.0M, contact on ice bath one hour, additive-free = 100

OCCS [Melcaptoethanol]
Relative activity of NucS (%) (NucS; [1]): 112% | Relative activity of NucS (%) (NucS; [2]): 116% | Relative activity of NucL (%) (NucL; [1]): 89% | Relative activity of NucL (%) (NucL; [2]): 92%

CN(C)C=O [Dimethyl formamide]
Relative activity of NucS (%) (NucS; [3]): 91% | Relative activity of NucS (%) (NucS; [4]): 118% | Relative activity of NucS (%) (NucS; [5]): 117% | effect of the chemical substance on NucS activity (in words) (NucS; summary of Table 3): high resistance | Relative activity of NucL (%) (NucL; [3]): 99% | Relative activity of NucL (%) (NucL; [4]): 74% | Relative activity of NucL (%) (NucL; [5]): 56%

Hydroxyapatite
Specific activity (U/mg) (Salmon sperm DNA): 38596 U/mg

[Cl][Cu][Cl] [CuCl2]
Relative activity of NucS (%) (NucS; [6]): 111% | Relative activity of NucS (%) (NucS; [1]): 3% | effect of the chemical substance on NucS activity (in words) (NucS; summary of Table 3): strongly inhibited | Relative activity of NucL (%) (NucL; [6]): 96% | Relative activity of NucL (%) (NucL; [1]): 9% | effect of the chemical substance on NucL activity (in words) (NucL): strongly inhibited

Triton X
Relative activity of NucS (%) (NucS; [7]): 115% | Relative activity of NucS (%) (NucS; [3]): 108% | Relative activity of NucL (%) (NucL; [7]): 137% | Relative activity of NucL (%) (NucL; [3]): 128%

O[C@H](CS)[C@H](O)CS (racemic) [Dithiothreitol]
Relative activity of NucS (%) (NucS; [1]): 105% | Relative activity of NucS (%) (NucS; [2]): 104% | Relative activity of NucL (%) (NucL; [1]): 89% | Relative activity of NucL (%) (NucL; [2]): 89%

C[S+](C)[O-] [Dimethyl sulfoxide]
Relative activity of NucS (%) (NucS; [3]): 110% | Relative activity of NucS (%) (NucS; [4]): 116% | Relative activity of NucS (%) (NucS; [5]): 113% | effect of the chemical substance on NucS activity (in words) (NucS; summary of Table 3): high resistance | Relative activity of NucL (%) (NucL; [3]): 105% | Relative activity of NucL (%) (NucL; [4]): 75% | Relative activity of NucL (%) (NucL; [5]): 40%

CCCCCCCCCCCCOS(=O)(=O)[O-].[Na+] [SDS]
Relative activity of NucS (%) (NucS; [7]): 85% | Relative activity of NucS (%) (NucS; [3]): 0% | Relative activity of NucL (%) (NucL; [7]): 89% | Relative activity of NucL (%) (NucL; [3]): 121% | effect of the chemical substance on NucL activity (in words) (NucL): high resistance

NC(N)=O [Urea]
Relative activity of NucS (%) (NucS; [8]): 125% | Relative activity of NucS (%) (NucS; [9]): 126% | Relative activity of NucS (%) (NucS; [10]): 92% | Relative activity of NucL (%) (NucL; [8]): 64% | Relative activity of NucL (%) (NucL; [9]): 55% | Relative activity of NucL (%) (NucL; [10]): 43%

O=S(=O)(F)Cc1ccccc1 [Phenylmethanesulfonyl fluoride]
Relative activity of NucS (%) (NucS; [1]): 85% | Relative activity of NucS (%) (NucS; [2]): 87% | Relative activity of NucL (%) (NucL; [1]): 111% | Relative activity of NucL (%) (NucL; [2]): 99%

[Cl-].[Cl-].[Zn+2] [ZnCl2]
Relative activity of NucS (%) (NucS; [6]): 3% | Relative activity of NucS (%) (NucS; [1]): 0% | effect of the chemical substance on NucS activity (in words) (NucS; summary of Table 3): strongly inhibited | Relative activity of NucL (%) (NucL; [6]): 1% | Relative activity of NucL (%) (NucL; [1]): 0% | effect of the chemical substance on NucL activity (in words) (NucL): strongly inhibited

O=C(O)CN(CCN(CC(=O)O)CC(=O)O)CC(=O)O [Ethylenediaminetetraacetic acid]
Relative activity of NucS (%) (NucS): 0% | effect of the chemical substance on NucS activity (in words) (NucS): strongly inhibited | Relative activity of NucL (%) (NucL; [2]): 0% | Relative activity of NucL (%) (NucL; chemical at 10.0 mM, contact on ice bath one hour, additive-free = 100): 0% | effect of the chemical substance on NucL activity (in words) (NucL): strongly inhibited

O=C(O)c1cc[c]([Hg][Cl])cc1 [Parachloro mercury benzoate]
Relative activity of NucS (%) (NucS; [6]): 92% | Relative activity of NucS (%) (NucS; [1]): 94% | Relative activity of NucL (%) (NucL; [6]): 108% | Relative activity of NucL (%) (NucL; [1]): 91%

O=C(O)CI [Iodoacetic acid]
Relative activity of NucS (%) (NucS): 103% and 96% | Relative activity of NucL (%) (NucL): 102% and 97%
